As usually defined, the IC50 is the concentration that inhibits the measured activity by half. Usually EC50 stands for the concentration giving half of the maximal effect.

Drawing on US20240116946A1 (Gilead Sciences, Inc., priority 2022, published 2024), this text covers IC50 and EC50 for 15 compounds.

In test [1] the target is recombinant SARS-CoV-2 Main protease (Mpro) (Severe acute respiratory syndrome coronavirus 2 (2019-nCoV) (SARS-CoV-2), UniProt P0DTD1). Description: Cov Mpro Biochemical IC50 Assay. To be noted: read-out: MPro IC50.
A further test deals with SARS-CoV-2-NLuc. Description: microbe, parasite or virus in culture. The format is cell-based, SARS Coronavirus 2.
Where [2] appears, read: recombinant SARS-CoV-2 Mpro 7.5 nM, fluorogenic peptide substrate 40 μM.
[3] abbreviates: Severe acute respiratory syndrome coronavirus, 48 h, read-out: MPro EC50.
Where [4] appears, read: recombinant SARS-CoV-2 Mpro, fluorogenic peptide substrate.
[5] abbreviates: Severe acute respiratory syndrome coronavirus, 48 h; read-out: MPro EC50.

Like-named read-outs stand apart in the source and are kept apart here.

For `COc1cc(-c2cc3[nH]c(=O)n(-c4cncc5cc(C(C)(C)O)sc45)c(=O)c3s2)c(Cl)cc1F` [Example 513], in test [1] (setting [2]), the 50% inhibitory concentration (IC50) was determined as 7.18 nM. Besides, the EC50 in the test on SARS-CoV-2-NLuc (setting [3]) is 45.9 nM.

Regarding `COc1ccc(-c2cc(C)c3ncnn3c2)c(-c2ccc3c(=O)n(-c4cncc5ccccc45)c(=O)[nH]c3c2)c1` [Example 568, 3-(4-isoquinolyl)-7-[5-methoxy-2-(8-methyl-[1,2,4]triazolo[1,5-a]pyridin-6-yl)phenyl]-1H-quinazoline-2,4-dione], the IC50 in test [1] (setting [2]) amounted to 5670 nM. Further, the EC50 in the test with SARS-CoV-2-NLuc (setting [3]) worked out at 2640 nM.

As to `Cc1cc(Cl)ncc1-c1cc2[nH]c(=O)n(-c3cncc4ccccc34)c(=O)c2s1` [Example 287], the IC50 in test [1] (setting [4]) amounted to 226 nM. The EC50 in the test on SARS-CoV-2-NLuc (setting [3]) was greater than 922 nM.

As for `Cc1ccnc(Cl)c1-c1cc2[nH]c(=O)n(-c3cncc4ccccc34)c(=O)c2s1` [Example 290], in test [1] (setting [4]), the IC50 was 159 nM. Moreover, in the test with SARS-CoV-2-NLuc (setting [3]), the EC50 was found to be 484 nM.

Consider `CCn1ncc2cncc(-n3c(=O)c4sc(-c5cc(OC)c(F)cc5Cl)cc4n(CCC#N)c3=O)c21` [Example 910], for which, in test [1] (setting [2]), the IC50 is 4.34 nM. For the same compound, the EC50 in the test with SARS-CoV-2-NLuc (setting [3]) was found to be 4.35 nM.

With `COc1cc(-c2cc3c(s2)c(=O)n(-c2cncc4cnn(C)c24)c(=O)n3CCCC#N)c(Cl)cc1F` [Example 658], the IC50 in test [1] (setting [2]) amounted to 14.4 nM. Moreover, the EC50 in the test on SARS-CoV-2-NLuc (setting [3]) was 22.8 nM.

Take `COc1cc(-c2cc3[nH]c(=O)n(-c4cncc5nccn45)c(=O)c3s2)c(Cl)cc1F` [Example 978]: the concentration for half-maximal inhibition (IC50) in test [1] (setting [2]) was found to be 33.4 nM. Further, in the test on SARS-CoV-2-NLuc (setting [5]), the EC50 is 369 nM.

On to `Cc1c2c(-n3c(=O)c4sc(-c5ccc(F)cc5Cl)cc4n(CCC#N)c3=O)cncc2nn1C` (single isomer, unassigned) [Example 971, 3-(6-(2-chloro-4-fluorophenyl)-3-(2,3-dimethyl-2H-pyrazolo[3,4-c]pyridin-4-yl)-2,4-dioxo-3,4-dihydrothieno[3,2-d]pyrimidin-1(2H)-yl)propanenitrile], for which the IC50 in test [1] (setting [2]) stood at 13 nM. Also, in the test on SARS-CoV-2-NLuc (read-out: MPro EC50), the EC50 was 55.8 nM.

Consider `COc1cc(-c2cc3c(s2)c(=O)n(-c2cncc4ccncc24)c(=O)n3CCC#N)c(Cl)cc1F` [Example 923, 3-[6-(2-chloro-4-fluoro-5-methoxy-phenyl)-3-(2,6-naphthyridin-4-yl)-2,4-dioxo-thieno[3,2-d]pyrimidin-1-yl]propanenitrile], for which the IC50 in test [1] (setting [2]) was 4.3 nM. Besides, in the test on SARS-CoV-2-NLuc (setting [3]), the EC50 is 2 nM.

With `COc1ccc(Cl)c(-c2ccc3c(=O)n(-c4cncc5ccc(N6CCC(F)(F)C6)cc45)c(=O)[nH]c3c2)c1` [Example 407], the IC50 in test [1] (setting [2]) is 79.7 nM. Also, in the test with SARS-CoV-2-NLuc (setting [3]), the EC50 was determined as 184 nM.

As for `COc1ccc(C#N)c(-c2cc3[nH]c(=O)n(-c4cncc5ccccc45)c(=O)c3s2)c1` (single isomer, unassigned) [Example 555, 2-(3-(isoquinolin-4-yl)-2,4-dioxo-1,2,3,4-tetrahydrothieno[3,2-d]pyrimidin-6-yl)-4-methoxybenzonitrile], in test [1] (setting [2]), the IC50 was 21.5 nM. Also, the EC50 in the test with SARS-CoV-2-NLuc (read-out: MPro EC50) is 79.6 nM.

On to `Cn1ncc2cncc(-n3c(=O)c4sc(-c5ccc(C#N)cc5Cl)cc4n(CCC#N)c3=O)c21` [Example 1025], for which the IC50 in test [1] (setting [2]) came to 86.4 nM. Besides, in the test on SARS-CoV-2-NLuc (setting [3]), the EC50 was found to be 244 nM.

With `COc1ccc(Cl)c(-c2ccc3c(=O)n(-c4cncc5cccnc45)c(=O)[nH]c3c2)c1` [Example 462, 7-(2-chloro-5-methoxyphenyl)-3-(1,6-naphthyridin-8-yl)quinazoline-2,4(1H,3H)-dione], the IC50 in test [1] (setting [2]) amounted to 28.4 nM. In addition, the EC50 with SARS-CoV-2-NLuc (setting [3]) was 61.5 nM.

On to `COc1cc(-c2cc3c(s2)c(=O)n(-c2cncc4ccccc24)c(=O)n3Cc2cc(F)c(F)c(F)c2)c(Cl)cc1F` [Example 1099, 6-(2-chloro-4-fluoro-5-methoxy-phenyl)-3-(4-isoquinolyl)-1-[(3,4,5-trifluorophenyl)methyl]thieno[3,2-d]pyrimidine-2,4-dione], for which, in test [1] (setting [2]), the IC50 worked out at 388 nM. Moreover, the EC50 with SARS-CoV-2-NLuc (setting [5]) is 921 nM.

In the case of `COc1cc(-c2cc3c(s2)c(=O)n(-c2c(C)ccnc2F)c(=O)n3CCC#N)c(Cl)cc1F` [Example 916], in test [1] (setting [2]), the IC50 worked out at 11.5 nM. For the same compound, the EC50 in the test with SARS-CoV-2-NLuc (setting [3]) came out at 30.3 nM.
